In this assay the target is T1, gastrin (CCK2) receptors (Rattus norvegicus, UniProt P30553).
T1 construct: The stomach was excised and flushed with ca. 1 ml of unbuffered physiological saline solution; from tissue; host or cells: isolated, lumen-perfused stomach of immature rats (33-50 g, ca. 21 days old)
T1 sequence (P30553 1-452): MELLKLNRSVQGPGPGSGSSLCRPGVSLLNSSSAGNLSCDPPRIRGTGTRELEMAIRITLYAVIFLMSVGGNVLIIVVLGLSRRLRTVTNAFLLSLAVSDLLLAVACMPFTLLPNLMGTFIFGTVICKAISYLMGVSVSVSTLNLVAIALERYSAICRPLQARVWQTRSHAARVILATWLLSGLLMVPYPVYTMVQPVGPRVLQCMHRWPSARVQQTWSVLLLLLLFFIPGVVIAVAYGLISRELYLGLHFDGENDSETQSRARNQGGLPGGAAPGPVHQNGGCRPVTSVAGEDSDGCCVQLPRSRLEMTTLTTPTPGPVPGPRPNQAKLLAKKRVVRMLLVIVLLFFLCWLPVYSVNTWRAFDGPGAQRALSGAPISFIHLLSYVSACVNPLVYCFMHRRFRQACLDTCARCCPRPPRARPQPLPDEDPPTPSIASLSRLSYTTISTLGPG
Nature of the assay: immature rat stomach assay, gastrin (CCK2) antagonist activity against pentagastrin-stimulated acid secretion. As to conditions: isolated immature rat stomach, 60 min incubation, then cumulative pentagastrin dose-response curves, read-out: Rat Stomach pKB (converted). As for the experimental part: The compounds of the examples were tested for gastrin (CCK2) antagonist activity in an immature rat stomach assay. The procedure was as follows: The oesophagus of immature rats (33–50 g, ca. 21 days old) was ligated at the level of the cardiac sphincter and the duodenal sphincter was cannulated. The stomach was excised and flushed with ca. 1 ml of unbuffered physiological saline solution. The fundus was punctured and cannulated. A further 4–5 ml of unbuffered solution was flushed through the stomach to ensure the preparation was not leaking. The stomach was lowered into a jacketed organ bath containing 40 ml of buffered solution containing 3×10^−8 M 5-methylfurmethide, maintained at 37° and gassed vigorously with 95% O2/5% CO2. The stomach was continuously perfused at a rate of 1 ml min^−1 with unbuffered solution gassed with 100% O2 with the perfusate passing over an internally referenced pH-electrode fixed 12 cm above the stomach. After 120 min of stabilisation the drugs were added directly to the serosal solution in the organ bath and after a further 60 min cumulative pentagastrin dose-response curves were started. Changes in acid secretion were monitored and the curves analysed according to Black et al., Br. J. Pharmacol. 1985, 86, 581.
`O=C(O)c1ccc2nc(-c3nc(C4CCCCC4)[nH]c3COC34CC5CC(CC(C5)C3)C4)oc2c1` [Example 2, 2-[5-(Adamantan-1-yloxymethyl)-2-cyclohexyl-1H-imidazole-4-yl]-benzooxazole-6-carboxylic acid]: the Kb was 1620 nM. In the case of `O=C(O)Cc1ccc2oc(-c3nc(C4CCCCC4)[nH]c3COC34CC5CC(CC(C5)C3)C4)nc2c1` [Example 5, {2-[5-(Adamantan-1-yloxymethyl)-2-cyclohexyl-1H-imidazole-4-yl]-benzooxazol-5-yl}-acetic acid], the Kb was 2040 nM. The value for `O=C(O)c1ccc2[nH]c(-c3nc(C4CCCCC4)[nH]c3COC34CC5CC(CC(C5)C3)C4)nc2c1` [Example 3, 2-[5-(Adamantan-1-yloxymethyl)-2-cyclohexyl-1H-imidazole-4-yl]-1H-benzoimidazole-5-carboxylic acid] was 3390 nM; that for `O=C(O)c1cccc2[nH]c(-c3nc(C4CCCCC4)[nH]c3COC34CC5CC(CC(C5)C3)C4)nc12` [Example 4, 2-[5-(Adamantan-1-yloxymethyl)-2-cyclohexyl-1H-imidazole-4-yl]-1H-benzoimidazole-4-carboxylic acid] was 372 nM.

`O=C(O)c1ccc2oc(-c3nc(C4CCCCC4)[nH]c3COC34CC5CC(CC(C5)C3)C4)nc2c1` [Example 1, 2-[5-(Adamantan-1-yloxymethyl)-2-cyclohexyl-1H-imidazole-4-yl]-benzooxazole-5-carboxylic acid]: the Kb is 3310 nM.
